Assay [1] addresses T1, RORα-LBD (Homo sapiens, UniProt P35398).
T1 sequence (P35398 272-510 limits assumed): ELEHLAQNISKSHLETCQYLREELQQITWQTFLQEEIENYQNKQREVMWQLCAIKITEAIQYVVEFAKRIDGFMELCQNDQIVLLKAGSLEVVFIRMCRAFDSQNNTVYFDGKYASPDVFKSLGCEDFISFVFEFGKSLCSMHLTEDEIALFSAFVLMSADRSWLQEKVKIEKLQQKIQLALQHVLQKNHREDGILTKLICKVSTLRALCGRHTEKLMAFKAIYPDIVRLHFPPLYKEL
Description: Radioligand receptor binding assay with 25-[3H]-OHC, RORα-LBD. The note with it: for competitive binding to RORα-LBD: in the presence of 4.5 nM 25-[3H]-OHC. As for the experimental part: (§1) Ligand binding was determined by filter binding assays to calculate the Kd value. […] Ki was determined using the Cheng-Prusoff equation.

In assay [2] the target is T2, GAL4 DBD-RORα LBD (Mus musculus, UniProt P51448).
T2 construct: mouse RORα-LBD (aa 261-523); expressed in transfected cells; host or cells: HEK293T
T2 sequence (P51448 261-523): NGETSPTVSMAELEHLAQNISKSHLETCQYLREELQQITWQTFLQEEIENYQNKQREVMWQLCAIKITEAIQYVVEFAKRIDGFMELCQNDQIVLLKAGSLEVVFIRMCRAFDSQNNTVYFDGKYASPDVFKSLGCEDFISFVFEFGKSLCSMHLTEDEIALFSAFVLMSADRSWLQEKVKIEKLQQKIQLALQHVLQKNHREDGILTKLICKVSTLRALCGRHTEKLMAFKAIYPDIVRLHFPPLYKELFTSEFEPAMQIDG
The experiment in a line: Mammalian one-hybrid reporter assay in HEK293T cells, GAL4-RORα. The format is cell-based. Conditions: ligand interaction reduces transcriptional activity. The text has this:
(§2) Plasmids containing the retinoic acid-related orphan receptor response element (RORE) from mouse Bmal1 promoter, pcDNA3.1B-G4DBD-RORαLBD and pcDNA3.1BG4DBD-RORγLBD were constructed in our lab. Specifically, the 1960 bp sequences (−1830/+130) of the mouse Bmal1 promoter harboring either WT ([…] (SEQ ID NO:1) and […] (SEQ ID NO:2)) or mutant ([…] (SEQ ID NO:3)) RORE were PCR amplified from mouse genomic DNA and cloned into pGL3-promoter luciferase vector. For expression of RORα or RORγ-GAL4 protein, mouse RORα-LBD (aa 261-523) or RORγ-LBD (aa 250-516) were PCR amplified from mouse genomic DNA and cloned into a GAL4-DBD-containing vector, pcDNA3.1B.
(§3) For mammalian one-hybrid assays, HEK293T cells were cotransfected with pcDNA3.1B-G4DBD-RORα/γLBD, pGL4.31 and TK promoter Renilla luciferase construct (tK.pRL). To investigate the regulation of the Bmal1 reporter, Hepa1-6 cells were cotransfected with Bmal1-WT or mutant RORE reporter plasmids, RORα, RORγ or Rev-erbα expression construct along with tK.pRL. Mouse and human siRNA targeting RORα and RORγ were purchased from Santa Cruz. Transfection was performed by Lipfectamine 2000 reagent (Invitrogen) Twenty-four hours after transfection, the cells were treated with vehicle or NOB. Lysates were collected 24 h after treatment, and firefly and Renilla luciferase activities were measured by using a Dual-Luciferase Reporter System (Promega).
(§4) For radio-ligand receptor binding assays, previously described protocols with minor modifications (Kumar et al., 2010; Wang et al., 2010b) were adopted.
(In general: A reporter such as luciferase makes a cellular process visible.)

Assay [3] addresses T3, GAL4 DBD-RORγ LBD (Mus musculus, UniProt P51450).
T3 construct: RORγ-LBD (aa 250-516); expressed in transfected cells; host or cells: HEK293T
T3 sequence (P51450 250-516): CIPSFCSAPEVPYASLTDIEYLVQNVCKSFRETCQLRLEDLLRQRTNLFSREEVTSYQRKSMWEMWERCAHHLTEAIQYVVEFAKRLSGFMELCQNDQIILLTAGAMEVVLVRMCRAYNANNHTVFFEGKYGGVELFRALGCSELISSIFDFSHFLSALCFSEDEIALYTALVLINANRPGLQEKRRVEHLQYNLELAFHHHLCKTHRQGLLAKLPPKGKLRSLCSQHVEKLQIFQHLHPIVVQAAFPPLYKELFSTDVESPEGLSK
Description: Mammalian one-hybrid reporter assay in HEK293T cells, GAL4-RORγ. The assay is classed as cell-based. Conditions: ligand interaction reduces transcriptional activity.
Description: as §2, §3, §4

The subject of assay [4] is Clock^Δ19/+ PER2::Luc reporter cells. The experiment in a line: High-throughput chemical screen, PER2::Luc reporter rhythm. Conditions: for PER2::Luc reporter rhythm / circadian amplitude: Clock^Δ19/+ cells, forskolin pre-stimulated. The assay is classed as cell-based, mouse. As for the experimental part:
Specifically, the chemical screen for circadian clock modulators was conducted at the Chemical Genomics Core facility at the University of Texas Health Science Center at Houston (UTHSC-H). The in-house chemical library screened consisted of compounds from the National Institutes of Health (NIH) Clinical Collection, National Cancer Institute collection, and Microsource Spectrum Collection. Screening was conducted largely on the basis of the protocol previously described (Chen et al., 2012). […] Upon confluency, cells were incubated with 5 μM forskolin for 1-2 hr, followed by the addition of chemical compounds to the plates with robotic arms (Beckman), and then subjected to continuous monitoring over several days in a temperature-controlled EnVision microplate reader (Perkin Elmer). Data analysis was carried out by using the MultiCycle software (Actimetrics) for measurement of period, phase, and amplitude. The chemical screen for circadian clock modulators was conducted at the Chemical Genomics Core facility at the UTHSC-H. The in-house chemical library screened consists of compounds from NIH Clinical Collection, NCI collection and Microsource Spectrum Collection. The screening was conducted largely based on the protocol previously described (Chen et al., 2012). […] Cells were then incubated with 5 μM forskolin for 1-2 h followed by the addition of chemical compounds to the plates with robotic arms (Beckman), and then subjected to continuous monitoring over several days in a temperature-controlled EnVision microplate reader (Perkin Elmer). Data analysis was carried out by using the MultiCycle software (Actimetrics) for measurement of period, phase, and amplitude. […] Tissue explant experiments were conducted as described previously (Chen et al., 2012).

Assay [5] concerns PER2::LucSV reporter fibroblast cells. The experiment in a line: Dose response validation of reporter rhythm in PER2::LucSV cells. The assay is classed as cell-based, mouse. The note with it: PER2::LucSV reporter cells. As for the experimental part:
The chemical screen for circadian clock modulators was conducted at the Chemical Genomics Core facility at the UTHSC-H. The in-house chemical library screened consists of compounds from NIH Clinical Collection, NCI collection and Microsource Spectrum Collection. The screening was conducted largely based on the protocol previously described (Chen et al., 2012). […] Cells were then incubated with 5 μM forskolin for 1-2 h followed by the addition of chemical compounds to the plates with robotic arms (Beckman), and then subjected to continuous monitoring over several days in a temperature-controlled EnVision microplate reader (Perkin Elmer). Data analysis was carried out by using the MultiCycle software (Actimetrics) for measurement of period, phase, and amplitude. […] Tissue explant experiments were conducted as described previously (Chen et al., 2012).

In assay [6] the target is T4, RORγ-LBD (Homo sapiens, UniProt P51449).
T4 sequence (P51449 269-508 limits assumed): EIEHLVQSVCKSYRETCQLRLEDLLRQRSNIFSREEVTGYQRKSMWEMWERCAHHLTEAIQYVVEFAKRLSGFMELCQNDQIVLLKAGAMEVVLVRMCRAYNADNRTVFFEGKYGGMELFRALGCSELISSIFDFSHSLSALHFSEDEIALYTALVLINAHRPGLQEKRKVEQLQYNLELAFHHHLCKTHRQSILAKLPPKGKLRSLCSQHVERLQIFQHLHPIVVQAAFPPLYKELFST
The experiment in a line: Radioligand receptor binding assay with 25-[3H]-OHC, RORγ-LBD. The note with it: in the presence of 4.5 nM 25-[3H]-OHC. On the procedure: as §1

Structures are written as SMILES.

On to `C[C@H](CCCC(C)(C)O)[C@H]1CC[C@H]2[C@@H]3CC=C4C[C@@H](O)CC[C@]4(C)[C@H]3CC[C@]12C` [25-[3H]—OHC, 25-[3H]-hydroxycholesterol], for which, in assay [1] (Scatchard plot, RORα), the “total number of binding sites (Bmax)” value is given as 100 fmol/mg of protein.
As to `CC(=O)Nc1nc(C)c(S(=O)(=O)Nc2ccc(C(O)(C(F)(F)F)C(F)(F)F)cc2)s1` [SR1001], the “activity on GAL4-RORα chimeric receptor” value in assay [2] is given as “robust activities”. The “activity on GAL4-RORγ chimeric receptor” value in assay [3] is recorded as “robust activities”.
As to `O=C1C[C@@H](c2ccc(O)cc2)Oc2cc(O)cc(O)c21` [naringenin], the “PER2::Luc reporter rhythm / circadian amplitude” value in assay [4] was “failed to enhance cellular circadian rhythms”. The reporter luminescence result in assay [4] (PER2::LUC Clock^Δ19/+ reporter cells) and in assay [5] was “did not enhance the reporter luminescence” each time. Moreover, the “competitive binding to RORα-LBD” value is on record as “no direct binding” in assay [1] and “markedly diminished binding” in assay [1] (listed as Naringenin). Further, the “competitive binding to RORγ-LBD” value in assay [6] is listed as “no direct binding”; in assay [6] (listed as Naringenin), “markedly diminished binding”.
For the compound `COc1ccc(-c2cc(=O)c3c(OC)c(OC)c(OC)c(OC)c3o2)cc1` [tangeretin], in assay [4], the “PER2::Luc reporter rhythm / circadian amplitude” value was “similarly enhanced the PER2::Luc reporter rhythm”.

Values taken from US20180296523A1, “USE OF POLYMETHOXYLATED FLAVONES TO AMELIORATE CIRCADIAN RHYTHM DISORDERS” (THE BOARD OF REGENTS OF THE UNIVERSITY OF TEXAS SY, priority 2017, published 2018).
